This note sets out measurements from patent US8680059B2, “Oligopeptide acetate and formulations thereof” (Biotempt B.V., priority 1998, dated 2014).

The test relates to RAW 264.7 murine macrophage cell line. The test can be described thus: Nitrite (NO) production in LPS-stimulated RAW 264.7 macrophages. It counts as cell-based. Conditions: co-stimulated with LPS 10 microg/ml, peptide even at 1 pg/ml, 24 hours. As to the method:
Cell culture. The RAW 264.7 murine macrophage cell line, obtained from American Type Culture Collection (Manassas, Va., USA), were cultured at 37° C. in 5% CO2 using DMEM containing 10% fetal calf serum (FCS), 50 U/ml penicillin, 50 μg/ml streptomycin, […] Na-pyruvate, 2 mM glutamine and 50 μM 2-mercaptoethanol (Bio Whittaker, Europe). The medium was changed every 2 days.
Nitrite measurements. Nitrite production was measured in the RAW 264.7 macrophage supernatants. The cells (7.5×10^5/ml) were cultured in 48-well plates in […] of culture medium. The cells were stimulated with LPS (10 microg/ml) and/or peptide (1 pg/ml, 1 ng/ml, 1 μg/ml) for 24 hours, then the culture media were collected. Nitrite was measured by adding 100 microl of Griess reagent (Sigma) to 100 microl samples of culture medium. The OD540 was measured using a microplate reader, and the nitrite concentration was calculated by comparison with the OD540 produced using standard solutions of sodium nitrite in the culture medium.

On to “AQGV [tetrapeptide derived from human chorionic gonadotropin, alanine replacement of LQGV]”, for which the NO production entry is recorded as “inhibited the production of NO”.
